Common to all, as to test: relative viability (nuclei count vs DMSO), 5 days (fraction); higher = more cells survive
Compound in assay [1]: N#CC[C@H](C1CCCC1)n1cc(-c2ncnc3[nH]ccc23)cn1 [Ruxolitinib] + CS(=O)(=O)N1CCN(Cc2cc3nc(-c4cccc5[nH]ncc45)nc(N4CCOCC4)c3s2)CC1 [Pictilisib] (partner 1 µM)
Summed up:
(§1)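 One day after seeding in 1536-well plates, lung cancer cell lines were dosed by pin tool. Dosing was either single-drug or a fixed anchor-drug dose plus five library-drug doses (not always all listed) in √10 steps. After 5 days, nuclei were stained in one fix-and-stain step and counted on 4× images, and relative viability is the nuclei count of treated wells over that of vehicle wells, given as the median of duplicate plates.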

Compound in assay [2]: CS(=O)(=O)c1ccc(C(=O)Nc2ccc(Cl)c(-c3ccccn3)c2)c(Cl)c1 [Vismodegib] + O=C(CCCCCCC(=O)Nc1ccccc1)NO [Vorinostat] (partner 1 µM)
Summed up:
as §1

Compound in assay [3]: N#CC[C@H](C1CCCC1)n1cc(-c2ncnc3[nH]ccc23)cn1 [Ruxolitinib] + O=C(CCCCCCC(=O)Nc1ccccc1)NO [Vorinostat] (partner 1 µM)
The method in brief:
as §1

Compound in assay [4]: CS(=O)(=O)c1ccc(-c2cnc(N)c(C(=O)Nc3ccccc3)n2)cc1 [VE-821] + CCNC(=O)c1noc(-c2cc(C(C)C)c(O)cc2O)c1-c1ccc(CN2CCOCC2)cc1 [Luminespib] (partner 0.01 µM)
The method in brief: as §1

In the case of NCI-H2087, the relative viability in assay [1] (first compound 0.08 µM) amounted to 0.798; in assay [1] (first compound 0.253 µM), 0.937; in assay [1] (first compound 0.8 µM), 0.645; in assay [1] (first compound 2.53 µM) it was 0.335; in assay [1] (first compound 8 µM) it was 0.842; in assay [2] (first compound 0.08 µM), 0.762. Further, the relative viability in assay [2] (first compound 0.253 µM) was 0.598; in assay [2] (first compound 0.8 µM), 0.402; in assay [2] (first compound 2.53 µM), 0.56; in assay [2] (first compound 8 µM) it was 0.302; in assay [3] (first compound 0.08 µM), 0.868; in assay [3] (first compound 0.8 µM), 0.752. Besides, the relative viability in assay [3] (first compound 2.53 µM) is 0.686; in assay [3] (first compound 8 µM), 0.705; in assay [4] (first compound 0.08 µM), 0.133; in assay [4] (first compound 0.253 µM), 0.176; in assay [4] (first compound 0.8 µM) it was 0.206; in assay [4] (first compound 2.53 µM), 0.144. Besides, in assay [4] (first compound 8 µM), the relative viability was 0.131.
With NCI-H2126, the relative viability stood at 0.493 in assay [1] (first compound 0.08 µM); 0.472 in assay [1] (first compound 0.253 µM); 0.531 in assay [1] (first compound 0.8 µM); 0.55 in assay [1] (first compound 2.53 µM); 0.582 in assay [1] (first compound 8 µM); 0.704 in assay [2] (first compound 0.08 µM). Besides, the relative viability in assay [2] (first compound 0.253 µM) stood at 0.744; in assay [2] (first compound 0.8 µM), 0.695; in assay [2] (first compound 2.53 µM) it was 0.72; in assay [2] (first compound 8 µM), 0.663; in assay [3] (first compound 0.08 µM), 0.771; in assay [3] (first compound 0.253 µM), 0.755. Further, the relative viability in assay [3] (first compound 0.8 µM) stood at 0.853; in assay [3] (first compound 2.53 µM) it was 0.843; in assay [3] (first compound 8 µM) it was 0.847; in assay [4] (first compound 0.08 µM) it was 0.908; in assay [4] (first compound 0.253 µM), 0.826; in assay [4] (first compound 0.8 µM), 0.807. In addition, the relative viability in assay [4] (first compound 2.53 µM) was determined as 0.782; in assay [4] (first compound 8 µM), 0.469.
For NCI-H2170, the relative viability stood at 0.36 in assay [1] (first compound 0.08 µM); 0.28 in assay [1] (first compound 0.253 µM); 0.418 in assay [1] (first compound 0.8 µM); 0.303 in assay [1] (first compound 2.53 µM); 0.253 in assay [1] (first compound 8 µM); 0.83 in assay [2] (first compound 0.08 µM). The relative viability came out at 0.712 in assay [2] (first compound 0.253 µM); 0.824 in assay [2] (first compound 0.8 µM); 0.815 in assay [2] (first compound 2.53 µM); 0.838 in assay [2] (first compound 8 µM); 0.804 in assay [3] (first compound 0.08 µM); 0.796 in assay [3] (first compound 0.253 µM). The relative viability in assay [3] (first compound 0.8 µM) came out at 0.889; in assay [3] (first compound 2.53 µM), 0.794; in assay [3] (first compound 8 µM), 0.65; in assay [4] (first compound 0.08 µM) it was 0.754; in assay [4] (first compound 0.253 µM) it was 0.623; in assay [4] (first compound 0.8 µM), 0.769. Also, the relative viability in assay [4] (first compound 2.53 µM) is 0.585; in assay [4] (first compound 8 µM), 0.555.
For NCI-H2228, the relative viability in assay [1] (first compound 0.08 µM) worked out at 0.584; in assay [1] (first compound 0.253 µM) it was 0.362; in assay [1] (first compound 0.8 µM), 0.365; in assay [1] (first compound 2.53 µM), 0.255; in assay [1] (first compound 8 µM) it was 0.246; in assay [2] (first compound 0.08 µM), 1.03. Moreover, the relative viability in assay [2] (first compound 0.253 µM) amounted to 0.719; in assay [2] (first compound 0.8 µM), 0.589; in assay [2] (first compound 2.53 µM) it was 0.751; in assay [2] (first compound 8 µM), 0.574; in assay [3] (first compound 0.08 µM), 0.595; in assay [3] (first compound 0.253 µM) it was 0.717. For the same cell line, the relative viability worked out at 0.9 in assay [3] (first compound 0.8 µM); 0.69 in assay [3] (first compound 2.53 µM); 0.37 in assay [3] (first compound 8 µM); 0.125 in assay [4] (first compound 0.08 µM); 0.165 in assay [4] (first compound 0.253 µM); 0.131 in assay [4] (first compound 0.8 µM). For the same cell line, the relative viability in assay [4] (first compound 2.53 µM) was 0.132; in assay [4] (first compound 8 µM), 0.0911.
For NCI-H2347, the relative viability amounted to 0.437 in assay [1] (first compound 0.08 µM); 0.637 in assay [1] (first compound 0.253 µM); 0.554 in assay [1] (first compound 0.8 µM); 0.485 in assay [1] (first compound 2.53 µM); 0.674 in assay [1] (first compound 8 µM); 0.553 in assay [2] (first compound 0.08 µM). Besides, the relative viability in assay [2] (first compound 0.253 µM) is 0.616; in assay [2] (first compound 0.8 µM), 0.519; in assay [2] (first compound 2.53 µM), 0.711; in assay [2] (first compound 8 µM) it was 0.507; in assay [3] (first compound 0.08 µM), 0.68; in assay [3] (first compound 0.253 µM), 0.546. Besides, the relative viability in assay [3] (first compound 0.8 µM) came to 0.568; in assay [3] (first compound 2.53 µM), 0.566; in assay [3] (first compound 8 µM) it was 0.622; in assay [4] (first compound 0.08 µM), 0.399; in assay [4] (first compound 0.253 µM), 0.418; in assay [4] (first compound 0.8 µM) it was 0.238. The values for the relative viability in assay [4] (first compound 2.53 µM) and in assay [4] (first compound 8 µM) were 0.505 and 0.582, respectively.
As to NCI-H2405, the relative viability amounted to 0.338 in assay [1] (first compound 0.253 µM); 0.463 in assay [1] (first compound 0.8 µM); 0.286 in assay [1] (first compound 2.53 µM); 0.269 in assay [1] (first compound 8 µM); 0.958 in assay [2] (first compound 0.08 µM); 0.85 in assay [2] (first compound 0.253 µM). Moreover, the relative viability in assay [2] (first compound 0.8 µM) turned out to be 1; in assay [2] (first compound 2.53 µM) it was 1.02; in assay [2] (first compound 8 µM), 1.06; in assay [3] (first compound 0.08 µM), 1; in assay [3] (first compound 0.253 µM) it was 0.957; in assay [3] (first compound 0.8 µM), 1.05. The relative viability was 1.19 in assay [3] (first compound 2.53 µM); 0.743 in assay [3] (first compound 8 µM); 0.758 in assay [4] (first compound 0.08 µM); 0.735 in assay [4] (first compound 0.253 µM); 0.437 in assay [4] (first compound 0.8 µM); 0.712 in assay [4] (first compound 2.53 µM). Further, in assay [4] (first compound 8 µM), the relative viability was found to be 0.594.

These data come from the supplement of paper PMC10307832.
